How the values were obtained:
[1] = test system: reverse passive Arthus reaction, mouse ear pinna; experiment: Reverse passive Arthus reaction (RPA) in the mouse ear pinna: oedema and Evans blue extravasation; assay type: in vivo; conditions: for Extravasation / Riduction % (extravasation): 10 mg/Kg i.p.; for Extravasation: Evans blue density at 620 nm in ear homogenate supernatant, Vehicle 0,90±0,06, Naïve 0,04±0,01; for Oedema (mg): 10 mg/Kg intraperitoneally 1 hour before induction, weight increase of 8 mm punch vs contralateral ear, three hours after antigen, Vehicle 49,8 ± 1,2, Naive 23,7 ± 1,2; for Riduction % (extravasation): reduction of extravasation versus Vehicle (0)
From the text: The Arthus model (RPA) is a model of immune-complex mediated tissue damage that involves the passive subcutaneous introduction of an antibody and the systemic administration of the corresponding antigen. This inflammatory model has been used to test the in vivo activity of the synthesised molecules.
The reverse passive Arthus reaction is induced, in the mouse ear pinna, by the subcutaneous injection of an excess of IgG anti human albumin followed by i.v. adiministration of the corresponding Ag (i.e. human albumin) together with Evans blue, 2 mg for each mouse, for the evaluation of extravasation.
The tested molecules were solubilised in DMSO, cremophor and PBS in a ratio of 1:1:18 and administered usually by intraperitonelly at the dosage of 10 mg/Kg 1 hour before the induction of anafilactic reaction. The animals were sacrificed 3 hours after the molecule administration.
The oedema and the extravasations are evaluated tree hours after the i.v. administration of the antigen. The oedema is evaluated as the increase of weight of lesioned ear area dissected by a 8 mm biopsy punch as compared to the contralateral unlesioned auricular tissues. The extravasation is measured determining the Evans blue density at 620 nm in the supernatants deriving from ear homogenates following centrifugation at 10000 x g for 20 min.

[2] = Solubility (physico-chemical properties); assay type: physicochemical; conditions: for solubility: organic solvent or mixture, read-out: solubility in organic solvents
Jurkat cells = experiment: Evaluation of cellular viability by MTT assay; assay type: cell-based, human; conditions: for Growth inhibition (% of control): 10 µM, incubated 18-24 hr, MTT, absorbance 570 nm
Procedure: Jurkat, an acute T-lymphoblastic leukemia cell line generated from a person, have been used. Cell culture have been cultured in RPMI-1640 culture medium containing 10% FBS.
Jurkat cells were cultured at 1x10^5 cells/ml in RPMI 1640 medium supplemented with 10% fetal bovine serum (FBS), 2mM L-glutamine and 100 U/ml penicillin + 100 ug/ml streptomycin.
To detect drug effect in vitro, MTT [3-(4,5-dimethylthiazol-2-yl)-2,5-diphenyltetrazolium bromide] assay was used as described (Carmichael J et al., 1987 Cancer Res. 47, 936-42). Briefly, cells were seeded in triplicate on 96-well culture plates at a density of 20000 cells/well. The drugs were added in order to have the final concentration of 10 µM (1 µl of a solution of 10mM in DMSO) and incubated for 18-24 hr. Then MTT (0.5 mg/ml) was added to each well, and plates were incubated for an additional 1 to 3 hr in the dark at 37 °C. After this time the MTT solution was aspirated from the wells and 0.1 ml of DMSO was added. The plates were allowed to stand for 10 min, and then the absorbance was determined in a SpectraCount (Packard) microplate reader at 570 nm. The drug effect was determined by comparing absorbances of treated and untreated cells.

Molecule	Extravasation ([1]; mouse ear)	Oedema (mg) ([1]; mouse ear)	Riduction % (extravasation) ([1]; mouse ear)	solubility ([2]; in DMSO and in chloroform) [µg/mL]	solubility in water [2]	Growth inhibition (% of control) (Jurkat cells)	further results
CCCCCCCCCCCCCCCCCCNC(C)=O [Example 13, N-octadecyl-acetyl-amide]	0,74±0,07	43,3 ± 0.6 mg	17.2%	> 10000	scarcely soluble	67.2 % of control	
CCCCCCCCCCCCCCCCCC(=O)NCCc1ccccc1 [Example 7, N-β-phenylethyl-stearoyl amide]				> 10000	scarcely soluble	47.3 % of control	
CCCCCCCCCCCCCCCCCC(=O)NC1CC1 [Example 20, N-cyclopropyl-stearoyl amide]	0,35±0,06	33,1 ± 0.9 mg	61.2%	> 10000	scarcely soluble	64.2 % of control	
CCCCCCCCCCCCCCCCCC(=O)OCCCCC [Example 40, n-pentyl-stearate]				> 10000	scarcely soluble		
CCCCCCCCCCCCCCCCCC(=O)OCC(C)C [Example 32, iso-butyl-stearate]				> 10000	scarcely soluble		
CCCCCCCCCCCCCCCC(=O)NC1CCCC1 [Example 37, N-cyclopentyl-palmitoyl amide]				> 10000	scarcely soluble	32.1 % of control	Extravasation ([1]; mouse ear, 10 mg/kg): 0,64±0,13; Oedema (mg) ([1]; mouse ear, 10 mg/kg): 36,2 ± 0.9 mg; Riduction % (extravasation) ([1]; mouse ear, 10 mg/kg): 52.5%
CCCCCCCCCCCCCCCCCC(=O)OCCC [Example 9, n-propyl-stearate]				> 10000	scarcely soluble		
CCCCCCCCCCCCCCCC(=O)OCCCC [Example 29, n-butyl-palmitate]				> 10000	scarcely soluble		
CCCC(C)(C)c1ccc2c(c1)OC(C)(C)[C@@H]1CC=C(C)C[C@@H]21 [JWH 133, reference compound]						2.0 % of control	reduction of oedema in vivo (in words) ([1]; mouse ear): unable; reduction of extravasation in vivo (in words) ([1]; mouse ear, i.p.): unable; cellular death in vitro (in words) (Jurkat cells): unable
CCCCCCCCCCCCCCCC(=O)OCC(C)C [Example 31, iso-butyl-palmitate]				> 10000	scarcely soluble		
CCCCCCCCCCCCCCCCCC(=O)NCCCC [Example 24, N- butyl-stearoyl amide]	0,55±0,07	33,6 ± 1.2 mg	38.9%	> 10000	scarcely soluble	32.1 % of control	
CCCCCCCCCCCCCCCCCC(=O)OCCCC [Example 30, n-butyl-stearate]				> 10000	scarcely soluble		
CCCCCCCCCCCCCCCC(=O)OC(C)C [Example 10, iso-propyl-palmitate]				> 10000	scarcely soluble		
CCCCCCCCCCCCCCCC(=O)NCCC [Example 17, N-propyl-palmitoyl amide]	0,52±0,12	32,3 ± 2.7 mg	32.3%	> 10000	scarcely soluble	21.4 % of control	
CCCCCCCCCCCCCCCC(=O)NCCCC [Example 23, N-butyl-palmitoyl amide]	0,59±0,08	35,2 ± 1.7 mg	34.5%	> 10000	scarcely soluble	36.0 % of control	
CCCCCCCCCCCCCCCC(=O)OCCC [Example 8, n-propyl-palmitate]				> 10000	scarcely soluble		

Molecule	Extravasation ([1]; mouse ear)	Oedema (mg) ([1]; mouse ear)	Riduction % (extravasation) ([1]; mouse ear)	solubility ([2]; in DMSO and in chloroform) [µg/mL]	solubility in water [2]	Growth inhibition (% of control) (Jurkat cells)	further results
CCCCCCCCCCCCCCCCCC(=O)OC(C)C [Example 11, iso-propyl-stearate]				> 10000	scarcely soluble		
CCCCCCCCCCCCCCCC(=O)NC1CC1 [Example 19, N-cyclopropyl-palmitoyl amide]	0,32±0,02	31,8 ± 3.6 mg	64.6%	> 10000	scarcely soluble	56.2 % of control	
CCCCCCCCCCCCCCCC(=O)NC1CCCC1 [Example 14, N-cyclopentyl-palmitoyl amide]					scarcely soluble	52.6 % of control	Extravasation ([1]; mouse ear, 10 mg/kg): 0,52±0,06; Oedema (mg) ([1]; mouse ear, 10 mg/kg): 39,5 ± 0.8 mg; Riduction % (extravasation) ([1]; mouse ear, 10 mg/kg): 32.3%; solubility in organic solvents ([2]; in DMSO and in chloroform): >10 mg/ml in DMSO and in chloroform
CCCCCCCCCCCCCCCCCC(=O)NCC(C)C [Example 26, N-isobutyl-stearoyl amide]	0,81±0,05	40,3 ± 0.7 mg	10.0%	> 10000	scarcely soluble		
CCCCCCCCCCCCCCCC(=O)OCCCCC [Example 39, n-pentyl-palmitate]				> 10000	scarcely soluble		
CCCCCCCCCCCCCCCC(=O)NCCCCC [Example 33, N-pentyl-palmitoyl amide]	0,72±0,06	43,9 ± 2.4 mg	20.0%	> 10000	scarcely soluble	33.3 % of control	
CCCCCC/C=C\CCCCCCCC(=O)NC(C)C [Example 3, N-Isopropyl-palmitoleyl amide]				> 10000	scarcely soluble	60.5 % of control	
CCCCCCCCCCCCCCCCCCCC(=O)NC(C)C [Example 6, N-Isopropyl-arachidyl amide]				> 10000	scarcely soluble	41.0 % of control	
CCCCCCCC/C=C\CCCCCCCC(N)=O [Oleylamide]	0,65±0,12	43,5 ± 2.6 mg	21.8%			22.1 % of control	
CCCCCCCCCCCCCCCCCC(=O)NCCC [Example 18, N- propyl-stearoyl amide]	0,54±0,03	33,3 ± 0.2 mg	40.0%	> 10000	scarcely soluble	17.3 % of control	
CCCCCCCCCCCCCCCCCC(=O)NC1CCC1 [Example 28, N-cyclobutyl-stearoyl amide]	0,31±0,12	40,6 ± 2.6 mg	65.6%	> 10000	scarcely soluble	31.6 % of control	
CCCCCCCCCCCCCCCC(=O)OC1CCCC1 [Example 41, cyclopentyl-palmitate]				> 10000	scarcely soluble		
CCCCCCCC/C=C\CCCCCCCC(=O)NC(C)C [Example 5, N-Isopropyl-oleyl amide]				> 10000	scarcely soluble	66.6 % of control	
CCCCCCCCCCCCCCCCCC(=O)NC1CCCCC1 [Example 16, N-cyclohexyl-stearoyl amide]	0,66±0,09	48,2 ± 1.8 mg	26,7%	> 10000	scarcely soluble	18.2 % of control	
SR144528 [reference compound]							antagonism of the anti-inflammatory effect of cannabinoid, endocannabinoid or molecules object of the invention (in words) ([1]; CB2 selective antagonist): did not antagonize
